Results reported in patent publication US20100227931A1, “ANTIFUNGAL COMPOSITION” (Kao Corporation, priority 2007, published 2010).

Assay: Measurement of calcium-chelating constant (Ca2+ ion electrode, pH 10 buffer)
Format: physicochemical
Conditions: 0.1 mol/L NH4Cl-NH4OH buffer pH 10; 1:1 chelate complex assumed
Method: As used herein, the “calcium-chelating constant” refers a value determined by the following method. A solution of 0.1 mol/L NH4Cl-NH4OH (pH 10) is prepared as a buffer. The buffer is used for preparing all sample solutions. To measure a concentration of Ca^2+, an ion meter, Orion […], and a Ca^2+ ion electrode are used. First, a relationship between calcium chloride concentration and potential of the electrode is determined to generate a calibration curve. […] A concentration of remaining Ca^2+ is measured using the Ca^2+ ion electrode. […] [formula] [M]total: initial Ca^2+ concentration [L]total: initial chelating agent concentration [M]: remaining Ca^2+ concentration

O=C(O)CN(CCN(CC(=O)O)CC(=O)O)CC(=O)O [EDTA, ethylenediaminetetraacetic acid]
calcium-chelating constant: 12

O=C(O)CC(O)(CC(=O)O)C(=O)O [citric acid]
calcium-chelating constant: 3
